The text below walks through data of publication PMC6658617, “Structure-Guided Identification of Resistance Breaking Antimalarial N‑Myristoyltransferase Inhibitors” (Cell Chemical Biology, 2019).

SMILES strings stand for the structures. Read-outs that look alike come from different tables or passages of the source.

As a reminder, the EC50 is the concentration needed to bring the measured effect to its halfway point. As a reminder, the IC50 is the concentration needed to halve the response being measured. A lower IC50 goes with greater potency. What is called ΔTm is the change in melting temperature against a reference sample. A word on the inhibition: it is the share of the control response that was lost under treatment.

The test system of experiment [1] is P. falciparum 3D7 parasites (PfNMT[WT]). Briefly: microbe, parasite or virus in culture. The experiment is classed as cell-based. The settings on record: for EC50: Plasmodium falciparum.
Experiment [2] relates to P. falciparum 3D7 PfNMT[G386E] clones. Briefly: microbe, parasite or virus in culture. The experiment is classed as cell-based. The settings on record: for EC50: Plasmodium falciparum.
Experiment [3] deals with P. falciparum 3D7 parasites. Further details: method as in Wright et al., 2014. The note with it: four times the EC50 concentration from beginning of 48-h cycle, ref Wright et al., 2014; cited from earlier work.
Experiment [4] has as its system P. falciparum Dd2 parental line. Put plainly: microbe, parasite or virus in culture. The experiment is classed as cell-based. The note with it: EC50 after 72 h (n = 3).
Experiment [5] deals with IMP-1002-resistant P. falciparum Dd2 parasites (uncloned population and clones, NMT G386E). Briefly: microbe, parasite or virus in culture. The format is cell-based. The settings on record: for EC50: Plasmodium falciparum, DD2, 72 h.
The target of experiment [6] is T1, PvNMT[G386E] (Plasmodium vivax, UniProt A5K1A2, G386E). Put plainly: biochemical. The experiment is classed as biochemical, P. vivax.
For the next experiment, the target named is HsNMT1 (Homo sapiens, UniProt P30419). The format is biochemical. The settings on record: selectivity, CPM assay.
The target of the next experiment is HsNMT2 (Homo sapiens, UniProt O60551). The experiment is classed as biochemical. The note with it: selectivity, CPM assay.
In experiment [7] the target is T2, PvNMT[WT] (Plasmodium vivax, UniProt A5K1A2).
T2 construct: hexaHis (3C protease-cleavable) (N); made in house; host or cells: E. coli Rosetta-gami (DE3), pET11a
Briefly: biochemical. The note with it: 5 μM compound, absence of MyrCoA; read-out: thermal stabilization (ΔTm) of PvNMT[WT]. The format is binding.

For experiment [8], the target named is T1, PvNMT[G386E]. Briefly: Thermal shift assay. The experiment is classed as binding, P. vivax. The note with it: 5 μM compound.
Experiment [9] addresses T2, PvNMT[WT]. The experiment is classed as binding. The note with it: SPR sensorgrams.
Experiment [10] has as its target T1, PvNMT[G386E]. The experiment is classed as binding, P. vivax.
In experiment [11] the test system is P. falciparum 3D7 parasites. Briefly: Parasite development and GAP45 immunofluorescence at four times EC50. The experiment is classed as cell-based. The settings on record: at four times the EC50 value (140 nM), 45 h PI. How it is done:
For IFA, slides were air dried, fixed in 4 % paraformaldehyde (PFA) in PBS for 10–20 min, permeabilized in 0.1 % Triton X-100 in PBS for 10 min, and blocked with 3 % BSA in PBS for at least 30 min at 4°C. GAP45 detection was achieved using a primary rabbit anti-GAP45-antibody ([Rees-Channer et al., 2006]). Slides were mounted in ProLong® Gold Antifade mounting medium containing DAPI (4’,6-diamidino-2-phenylindole), and viewed on a Nikon Eclipse Ni-E imaging system with a Hamamatsu Orca-flash 4.0 digital camera and a Plan apo λ 100x/1.45 oil immersion objective. Images were captured using Nikon’s NIS-Elements imaging software generating Z-stack images of individual parasites, using deconvolution options and exporting the image as a tiff file, which was further edited using Adobe Photoshop.

In experiment [12] the test system is N-myristoylation in WT 3D7 parasites. Briefly: YnMyr metabolic labelling of NMT substrates. The experiment is classed as cell-based, P. falciparum. The settings on record: 140 nM, 36–45 h post-invasion. The method, then: Synchronized populations of stage-specific parasites were labelled with 25 μM of YnMyr for the specified length of time. Parasites were then lysed in 0.15 % saponin for 10 min on ice. The pellet was washed until the supernatant was colorless and then stored at -80°C. Thawed parasite pellets were extracted in 1 % Triton X-100, 0.1 % SDS in PBS on ice for 20 min with 1 min sonication. The protein concentration of the lysate was measured by BCA assay and adjusted to 1 mg/mL with PBS. The capture reagent was ‘clicked’ (100 μM capture reagent AzRB2, 1 mM CuSO4, 1 mM TCEP, 100 μM TBTA), the reaction was quenched with EDTA, and then precipitated proteins were washed with ice cold methanol as described previously ([Heal et al., 2011], [Wright et al., 2015]). Proteins were re-dissolved in 2 % SDS, 10 mM DTT, in PBS at 1 mg/mL and heated for 7 min at 95°C in sample loading buffer prior to SDS-PAGE.
Following the click reaction, the protein solution in PBS containing 2 % SDS, 10 mM DTT was treated with 0.2 M NaOH for 1 h at room temperature with vortexing. Samples were neutralized with an equivalent volume and concentration of HCl and diluted with PBS to 1 mg/mL prior to gel analysis.

The subject of experiment [13] is N-myristoylation in PfNMT[G386E] parasite clones. The experiment is classed as cell-based. The note with it: 140 nM, 36–45 h post-invasion.
Another experiment concerns WT 3D7 parasites. Briefly: Flow cytometry of Hoechst-stained parasites (number of nuclei). The format is cell-based, P. falciparum. The note with it: 140 nM for 45 h from ring stage. The method, then:
Synchronized parasites were incubated with DMSO or NMTi and samples were fixed in 2% PFA, 0.2 % glutaraldehyde for 1 hour at 45 h PI. Subsequently samples were washed in PBS and labelled with 1:500 of 10 mg/mL Hoechst 33342 for 10 min with a subsequent wash in PBS. For analysis, a Flow Cytometry CL1 Fortessa D Analyzer from BD with FACSDiva software v8.0.1 was used with the 450-50 filter counting 50,000 RBC per sample. Data were analyzed using FlowJo LLC 2006-2015 to determine the median fluorescence intensity (MFI) of each sample after gating out the RBC population using an RBC only sample as a control. The MFI of each sample was divided by the MFI of a control sample of synchronized rings with a known MFI of one nucleus.

A further experiment deals with PfNMT[G386E] parasites. Put plainly: microbe, parasite or virus in culture. The format is cell-based.
Setting [14] is: 3D7, read-out: Growth assay PfNMT[WT] EC50.
Where [15] appears, read: 3D7, read-out: Growth assay PfNMT[G386E] Clone 1 EC50.
The mark [16] stands for this setting: 3D7, read-out: Growth assay PfNMT[G386E] Clone 2 EC50.

T1 sequence (A5K1A2 27-410 G386E): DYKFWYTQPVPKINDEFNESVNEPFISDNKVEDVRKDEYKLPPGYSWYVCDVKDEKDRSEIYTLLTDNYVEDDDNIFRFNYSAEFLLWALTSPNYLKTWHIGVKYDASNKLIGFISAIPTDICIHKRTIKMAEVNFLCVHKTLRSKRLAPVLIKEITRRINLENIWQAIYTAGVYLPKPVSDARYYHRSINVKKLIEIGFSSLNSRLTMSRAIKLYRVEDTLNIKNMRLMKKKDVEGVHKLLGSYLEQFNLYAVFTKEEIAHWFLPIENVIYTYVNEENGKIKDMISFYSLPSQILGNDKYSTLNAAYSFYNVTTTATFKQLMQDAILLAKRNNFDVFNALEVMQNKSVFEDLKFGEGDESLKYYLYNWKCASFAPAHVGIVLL
T2 sequence (A5K1A2 entry or part of it): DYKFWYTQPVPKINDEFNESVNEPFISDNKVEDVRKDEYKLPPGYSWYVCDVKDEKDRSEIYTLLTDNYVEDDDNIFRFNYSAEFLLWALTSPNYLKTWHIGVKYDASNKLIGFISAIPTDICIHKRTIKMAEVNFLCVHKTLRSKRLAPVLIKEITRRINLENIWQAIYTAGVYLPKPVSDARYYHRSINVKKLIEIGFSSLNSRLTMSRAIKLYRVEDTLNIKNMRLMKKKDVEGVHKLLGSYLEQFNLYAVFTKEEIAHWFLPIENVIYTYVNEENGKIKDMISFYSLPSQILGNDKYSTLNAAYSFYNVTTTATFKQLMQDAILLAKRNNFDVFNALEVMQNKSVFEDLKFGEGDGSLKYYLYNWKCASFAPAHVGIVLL
Sequence of HsNMT1 (P30419 whole entry): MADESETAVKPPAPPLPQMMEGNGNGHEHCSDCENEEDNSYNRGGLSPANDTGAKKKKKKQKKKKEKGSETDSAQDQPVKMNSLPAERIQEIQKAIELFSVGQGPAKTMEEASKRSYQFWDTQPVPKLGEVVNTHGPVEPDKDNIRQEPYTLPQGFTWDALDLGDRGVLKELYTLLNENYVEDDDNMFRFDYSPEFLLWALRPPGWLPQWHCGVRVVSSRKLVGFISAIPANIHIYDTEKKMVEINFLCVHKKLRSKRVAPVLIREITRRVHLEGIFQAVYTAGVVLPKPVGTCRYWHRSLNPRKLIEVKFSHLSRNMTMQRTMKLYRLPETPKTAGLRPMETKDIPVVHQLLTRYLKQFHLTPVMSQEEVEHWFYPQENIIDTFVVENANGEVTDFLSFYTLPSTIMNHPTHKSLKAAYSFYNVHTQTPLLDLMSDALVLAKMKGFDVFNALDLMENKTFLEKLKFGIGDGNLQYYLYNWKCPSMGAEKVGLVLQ
Sequence of HsNMT2 (O60551 whole entry): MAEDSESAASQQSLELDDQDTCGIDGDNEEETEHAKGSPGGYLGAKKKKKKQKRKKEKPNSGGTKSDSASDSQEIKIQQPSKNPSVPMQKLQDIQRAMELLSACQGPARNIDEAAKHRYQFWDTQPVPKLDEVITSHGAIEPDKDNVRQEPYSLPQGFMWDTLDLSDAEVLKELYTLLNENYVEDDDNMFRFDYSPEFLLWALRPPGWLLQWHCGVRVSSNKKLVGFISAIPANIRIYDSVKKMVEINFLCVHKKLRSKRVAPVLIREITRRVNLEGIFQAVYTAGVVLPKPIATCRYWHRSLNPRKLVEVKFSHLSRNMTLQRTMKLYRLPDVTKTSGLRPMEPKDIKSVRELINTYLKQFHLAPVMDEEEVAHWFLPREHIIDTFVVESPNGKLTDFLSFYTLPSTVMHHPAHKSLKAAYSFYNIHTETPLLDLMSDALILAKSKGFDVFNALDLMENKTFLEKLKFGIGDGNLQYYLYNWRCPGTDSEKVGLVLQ

For `Cc1nn(C)c(C)c1NS(=O)(=O)c1c(Cl)cc(-c2ccnc(N3CCNCC3)c2)cc1Cl` [DDD85646, reference compound], the results for the EC50 in [1] (setting [14]), in [2] (setting [15]) and in experiment [2] (setting [16]) were 69 nM, 91 nM and 103 nM, respectively. In addition, the “nuclei at stalled pseudoschizont stage” value in [3] is reported as 4–6 nuclei.

Consider `Cc1nn(C)c(C)c1CCOc1cc(F)ccc1-c1ccc2c(c1)c(CN(C)C)nn2C` [IMP-1002, 1-(5-(4-fluoro-2-(2-(1,3,5-trimethyl-1H-pyrazol-4-yl)ethoxy)phenyl)-1-methyl-1H-indazol-3-yl)-N,N-dimethylmethanamine], for which the “fold more potent in killing parasites than DDD85646” value in [1] is 4 fold. Besides, the EC50 was 9.6 nM in experiment [1] (setting [14]); 34 nM in experiment [1] (3D7 parasites, initial EC50 determination (Figures 2A, S2A), read-out: parasite growth EC50); 35 nM in experiment [4]; 20.4 ± 4.9 nM in [4] (Plasmodium falciparum, DD2, 72 h); 270 ± 40 nM in experiment [5] (read-out: EC50 Clone 01); 300 ± 140 nM in experiment [5] (read-out: EC50 Clone 02). The EC50 was 240 ± 63 nM in experiment [5] (read-out: EC50 Clone 03), 320 ± 50 nM in experiment [5] (read-out: EC50 uncloned population), 230 nM in experiment [2] (setting [15]) and 201 nM in [2] (setting [16]). Further, the “increase in EC50 of IMP-1002-resistant clones” value in experiment [5] (resistant Dd2 clones versus Dd2 parental line) is listed as 14 fold. The “Ratio PfNMT[G386]/PfNMT[WT] EC50, Clone 1” value in experiment [2] (EC50 of [G386E]/[WT], Clone 1) was 24. Also, the “Ratio PfNMT[G386]/PfNMT[WT] EC50, Clone 2” value in [2] (EC50 of [G386E]/[WT], Clone 2) is 21. Moreover, the “IC50 ratio of G386E/WT on average” value at PvNMT[G386E] [6] was found to be 2.6. In addition, at PvNMT[G386E] [6], the “Ratio PvNMT[G386E]/PvNMT[WT] IC50, Replicate 1” value was 3.1. For the same molecule, on PvNMT[G386E] [6], the “Ratio PvNMT[G386E]/PvNMT[WT] IC50, Replicate 2” value is on record as 3.4. Also, the “Ratio PvNMT[G386E]/PvNMT[WT] IC50, Replicate 3” value at PvNMT[G386E] [6] is on record as 1.4. In addition, the IC50 against PvNMT[G386E] [6] (PvNMT[G386E] IC50, Replicate 1) was found to be 6 nM; on PvNMT[G386E] [6] (PvNMT[G386E] IC50, Replicate 2), 7.1 nM; at PvNMT[G386E] [6] (PvNMT[G386E] IC50, Replicate 3) it was 6.9 nM. The “HsNMT1/PvNMT fold difference in IC50” value at HsNMT1 came out at 2.32. Besides, the “HsNMT2/PvNMT fold difference in IC50” value at HsNMT2 is reported as 3.84. In addition, the shift in melting temperature (ΔTm) at 5 µM on PvNMT[WT] [7] was above 8.8 °C. In addition, the “thermal stabilization (ΔTm) of PvNMT[G386E]” value at PvNMT[G386E] [8] (absence of MyrCoA) was 1.8 °C. In addition, at PvNMT[G386E] [8] (absence of MyrCoA (Table S4A), in favor of WT), the “ΔΔTm between PvNMT[WT] and PvNMT[G386E]” value is above 7.0 °C. Also, the “dissociation rate with PvNMT[WT]” value at PvNMT[WT] [9] is on record as “slow dissociation rate”. Also, at PvNMT[G386E] [10], the “decrease in affinity (KD PvNMT[G386E] / KD PvNMT[WT])” value is reported as “approximately 5 fold”. In addition, the “accumulation of NMT substrate GAP45” value in experiment [11] is reported as “inhibiting accumulation”. The “YnMyr labeling in WT parasites” value in experiment [12] is “clear decrease in YnMyr labeling”. Moreover, the “YnMyr labeling in PfNMT[G386E] parasite clones” value in [13] is “no reduction in labeling”. The “number of nuclei versus DMSO control, WT parasites” value in the experiment with WT 3D7 parasites is recorded as “reduced number of nuclei”. For the same molecule, the “number of nuclei versus DMSO control, PfNMT[G386E] parasites” value in the experiment with PfNMT[G386E] parasites (140 nM for 45 h from ring stage) is “no difference”. The inhibition at 0.14 µM with PfNMT[G386E] parasites (Plasmodium falciparum, read-out: inhibition of [G386E] parasites) is 0%.
